Laboratory results as given in EPA's ToxValDB 9.5 (doi:10.2903/j.efsa.2018.5151).
≈ marks a conversion by molar mass, not a printed value.

How the values were obtained:
Anas platyrhynchos = conditions: acute; oral; unspecified; mortality
Apis mellifera = conditions: acute, mortality
Bibionidae = conditions: chronic/long-term; duration: 28 days
Colinus virginianus = conditions: reproduction developmental
Daphnia magna = conditions: chronic/long-term; duration: 21 days
Folsomia candida = conditions: chronic/long-term; duration: 28 days; reproduction
Rattus norvegicus = conditions: acute; oral; mortality
Aphidius rhopalosiphi = assay: LR50; higher = less toxic

SMILES: COC(=O)Nc1cccc(OC(=O)Nc2cccc(C)c2)c1 [Phenmedipham]
- LD50 (Anas platyrhynchos): > 2500 mg/kg-day
- LD50 (Apis mellifera; dermal): > 100 µg/piece
- LD50 (Apis mellifera; oral, unspecified): > 105 µg/piece
- NOEC (Bibionidae): ≥ 6.86 mg/L
- NOAEL (Colinus virginianus): 121 mg/kg-day
- NOEC (Daphnia magna): 0.005 mg/L
- NOEC (Folsomia candida): 500 mg/kg
- LC50 (Oncorhynchus mykiss; acute, duration: 96 hours, mortality): 1.84 µg/mL (≈ 6.13 µM)
- NOEC (Oncorhynchus mykiss; chronic/long-term, duration: 92 days, growth): 0.041 mg/L
- LD50 (Rattus norvegicus): > 5000 mg/kg-day
- LR50 (Aphidius rhopalosiphi; acute, mortality): > 294 g/ha
- LR50 (Aphidius rhopalosiphi; chronic/long-term, duration: 14 days, no effects): > 960 g/ha
